Measured values reported in US20240270762A1, “PENICILLIN-BINDING PROTEIN INHIBITORS” (priority 2021, published 2024).
≈ marks a conversion by molar mass, not a printed value. Like-named read-outs stand apart in the source and are kept apart here.

Columns and labels:
[1] = molecular target: T1, PBP1a from Acinetobacter baumannii (ATCC 19606) (Acinetobacter baumannii, UniProt A0ABX6CK30); experiment: Bocillin-FL fluorescence polarization competition binding, A. baumannii PBP1a; conditions: fluorescence polarization competition binding assay using Bocillin-FL; read-out: A. baumannii PBP1a Potency
T1 sequence (A0ABX6CK30 1-851): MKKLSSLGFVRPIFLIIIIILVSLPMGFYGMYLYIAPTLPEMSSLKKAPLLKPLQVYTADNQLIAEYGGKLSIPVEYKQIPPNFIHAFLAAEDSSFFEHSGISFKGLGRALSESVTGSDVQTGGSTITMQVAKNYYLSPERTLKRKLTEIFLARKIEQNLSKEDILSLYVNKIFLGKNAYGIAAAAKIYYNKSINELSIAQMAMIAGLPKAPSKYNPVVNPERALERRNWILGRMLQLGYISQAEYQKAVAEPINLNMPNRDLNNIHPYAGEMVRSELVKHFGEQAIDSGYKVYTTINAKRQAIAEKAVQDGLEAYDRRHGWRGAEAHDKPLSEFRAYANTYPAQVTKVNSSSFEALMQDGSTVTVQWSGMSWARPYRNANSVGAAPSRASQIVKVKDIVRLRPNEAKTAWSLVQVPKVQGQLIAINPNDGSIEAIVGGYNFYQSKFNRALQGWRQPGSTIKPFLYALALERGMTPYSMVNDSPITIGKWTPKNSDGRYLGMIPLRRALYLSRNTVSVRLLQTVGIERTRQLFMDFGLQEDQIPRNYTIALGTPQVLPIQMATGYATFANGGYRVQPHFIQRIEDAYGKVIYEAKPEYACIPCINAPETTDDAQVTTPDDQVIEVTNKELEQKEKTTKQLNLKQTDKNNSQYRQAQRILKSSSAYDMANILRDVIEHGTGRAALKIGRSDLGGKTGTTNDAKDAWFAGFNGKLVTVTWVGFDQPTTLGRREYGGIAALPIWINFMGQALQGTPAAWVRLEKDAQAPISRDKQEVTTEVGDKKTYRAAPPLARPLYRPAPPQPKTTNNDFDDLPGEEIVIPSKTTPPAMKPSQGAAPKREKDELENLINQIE
Method in brief: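 Purified PBPs pre-incubated with inhibitor (E. coli PBP3 1.5 μM, 30 min; P. aeruginosa PBP3 0.75 μM, A. baumannii PBP1a 1 μM and PBP3 0.2 μM, 15 min), then Bocillin-FL 0.1 μM (0.05 μM for PBP1a) added; FP read up to 60 min. EC50 = concentration halving bound Bocillin-FL.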

A. baumannii ATCC 19606 = experiment: microbe, parasite or virus in culture; type: cell-based; conditions: Acinetobacter baumannii, ATCC19606, read-out: MIC, A. baumannii ATCC 19606
A. baumannii 1258916 = experiment: microbe, parasite or virus in culture; type: cell-based, Acinetobacter baumannii; conditions: Acinetobacter baumannii, 1258916, read-out: MIC, A. baumannii 1258916
A. baumannii CDC-0033 = experiment: microbe, parasite or virus in culture; type: cell-based; conditions: Acinetobacter baumannii, CDC0033, read-out: MIC, A. baumannii CDC-0033
A. baumannii CDC-0083 = experiment: microbe, parasite or virus in culture; type: cell-based; conditions: Acinetobacter baumannii, CDC0083, read-out: MIC, A. baumannii CDC-0083
N. gonorrhoeae WHO M = experiment: Liquid broth MIC in Fastidious broth; conditions: Neisseria gonorrhoeae
N. gonorrhoeae WHO X = experiment: Liquid broth MIC in Fastidious broth; conditions: Neisseria gonorrhoeae
N. gonorrhoeae CDC-0197 = experiment: Liquid broth MIC in Fastidious broth; conditions: Neisseria gonorrhoeae
[2] = read-out: Minimum Inhibitory Concentration (MIC), N. gonorrhoeae WHO M
[3] = read-out: Minimum Inhibitory Concentration (MIC), N. gonorrhoeae WHO X
[4] = CDC0197, read-out: Minimum Inhibitory Concentration (MIC), N. gonorrhoeae CDC-0197
[5] = read-out: Minimum Inhibitory Concentration, WHO M
[6] = read-out: Minimum Inhibitory Concentration, WHO X
[7] = CDC0197, read-out: Minimum Inhibitory Concentration, CDC-0197

Compound	IC50 [1] [µM]	MIC (A. baumannii ATCC 19606) [µg/mL]	MIC (A. baumannii 1258916) [µg/mL]	MIC (A. baumannii CDC-0033) [µg/mL]	MIC (A. baumannii CDC-0083) [µg/mL]	MIC (N. gonorrhoeae WHO M; [2]) [µg/mL]	MIC (N. gonorrhoeae WHO X; [3]) [µg/mL]	MIC (N. gonorrhoeae CDC-0197; [4]) [µg/mL]	MIC (N. gonorrhoeae WHO M; [5]) [µg/mL]	MIC (N. gonorrhoeae WHO X; [6]) [µg/mL]	MIC (N. gonorrhoeae CDC-0197; [7]) [µg/mL]
O=C(NCCCN1CCN(C(=O)NC(C(=O)N[C@H]2Cc3ccc(F)c(C(=O)O)c3OB2O)c2cc(F)c(O)c(O)c2Cl)C(=O)C1=O)Nc1cccnc1 (stereo partly drawn) [Example 213, (3R)-3-(2-(2-chloro-5-fluoro-3,4-dihydroxyphenyl)-2-(2,3-dioxo-4-(3-(3-(pyridin-3-yl)ureido)propyl)piperazine-1-carboxamido)acetamido)-7-fluoro-2-hydroxy-3,4-dihydro-2H-benzo[e][1,2]oxaborinine-8-carboxylic acid]	> 250	< 1	< 1	8 to 16 (≈ 10.5 to 21.1 µM)	8 to 16 (≈ 10.5 to 21.1 µM)	16 to 32 (≈ 21.1 to 42.1 µM)	> 64	> 64			
O=C(NCCCN1CCN(C(=O)NC(C(=O)N[C@H]2Cc3ccc(F)c(C(=O)O)c3OB2O)c2cc(F)c(O)c(O)c2Cl)C1=O)c1nccs1 (stereo partly drawn) [Example 257, (3R)-3-(2-(2-chloro-5-fluoro-3,4-dihydroxyphenyl)-2-(2-oxo-3-(3-(thiazole-2-carboxamido)propyl)imidazolidine-1-carboxamido)acetamido)-7-fluoro-2-hydroxy-3,4-dihydro-2H-benzo[e][1,2]oxaborinine-8-carboxylic acid]	> 250	< 1	< 1	2 to 4 (≈ 2.77 to 5.53 µM)	< 1				16 to 32 (≈ 22.1 to 44.3 µM)	> 64	> 64
O=C(CN1CCN(C(=O)NC(C(=O)N[C@H]2Cc3ccc(F)c(C(=O)O)c3OB2O)c2cc(F)c(O)c(O)c2Cl)C(=O)C1=O)Nc1ccncc1 (stereo partly drawn) [Example 233, (3R)-3-(2-(2-chloro-5-fluoro-3,4-dihydroxyphenyl)-2-(2,3-dioxo-4-(2-oxo-2-(pyridin-4-ylamino)ethyl)piperazine-1-carboxamido)acetamido)-7-fluoro-2-hydroxy-3,4-dihydro-2H-benzo[e][1,2]oxaborinine-8-carboxylic acid]	> 250	< 1	< 1	8 to 16 (≈ 11.2 to 22.3 µM)	< 1	4 to 8 (≈ 5.58 to 11.2 µM)	> 64	16 to 32 (≈ 22.3 to 44.6 µM)			
O=C(NCCCN1CCN(C(=O)N[C@H](C(=O)N[C@H]2Cc3ccc(F)c(C(=O)O)c3OB2O)c2cc(F)c(O)c(O)c2Cl)C1=O)c1cccc(O)c1 [Example 254, (R)-3-((S)-2-(2-chloro-5-fluoro-3,4-dihydroxyphenyl)-2-(3-(3-(3-hydroxybenzamido)propyl)-2-oxoimidazolidine-1-carboxamido)acetamido)-7-fluoro-2-hydroxy-3,4-dihydro-2H-benzo[e][1,2]oxaborinine-8-carboxylic acid]	> 250	8 to 16 (≈ 10.9 to 21.9 µM)	> 128	32 to 64 (≈ 43.7 to 87.4 µM)	> 128				> 64	> 64	> 64
O=C(CN1CCN(C(=O)NC(C(=O)N[C@H]2Cc3ccc(F)c(C(=O)O)c3OB2O)c2cc(F)c(O)c(O)c2Cl)C(=O)C1=O)NCc1cccc(O)c1 (stereo partly drawn) [Example 237, (3R)-3-(2-(2-chloro-5-fluoro-3,4-dihydroxyphenyl)-2-(4-(2-((3-hydroxybenzyl)amino)-2-oxoethyl)-2,3-dioxopiperazine-1-carboxamido)acetamido)-7-fluoro-2-hydroxy-3,4-dihydro-2H-benzo[e][1,2]oxaborinine-8-carboxylic acid]	> 250	< 1	2 to 4 (≈ 2.68 to 5.36 µM)	8 to 16 (≈ 10.7 to 21.5 µM)	> 128	4 to 8 (≈ 5.36 to 10.7 µM)	> 64	16 to 32 (≈ 21.5 to 42.9 µM)			
O=C(NCCCN1CCN(C(=O)NC(C(=O)N[C@H]2Cc3ccc(F)c(C(=O)O)c3OB2O)c2cc(F)c(O)c(O)c2Cl)C(=O)C1=O)Nc1ccc(O)cc1 (stereo partly drawn) [Example 227, (3R)-3-(2-(2-chloro-5-fluoro-3,4-dihydroxyphenyl)-2-(4-(3-(3-(4-hydroxyphenyl)ureido)propyl)-2,3-dioxopiperazine-1-carboxamido)acetamido)-7-fluoro-2-hydroxy-3,4-dihydro-2H-benzo[e][1,2]oxaborinine-8-carboxylic acid]	> 250	< 1	< 1	2 to 4 (≈ 2.58 to 5.16 µM)	< 1	4 to 8 (≈ 5.16 to 10.3 µM)	> 64	> 64			
O=C(NCCN1CCN(C(=O)NC(C(=O)N[C@H]2Cc3ccc(F)c(C(=O)O)c3OB2O)c2cc(F)c(O)c(O)c2Cl)C1=O)Nc1cccnc1 (stereo partly drawn) [Example 251, (3R)-3-(2-(2-chloro-5-fluoro-3,4-dihydroxyphenyl)-2-(2-oxo-3-(2-(3-(pyridin-3-yl)ureido)ethyl)imidazolidine-1-carboxamido)acetamido)-7-fluoro-2-hydroxy-3,4-dihydro-2H-benzo[e][1,2]oxaborinine-8-carboxylic acid]	> 250	< 1	< 1	2 to 4 (≈ 2.79 to 5.57 µM)	2 to 4 (≈ 2.79 to 5.57 µM)				16 to 32 (≈ 22.3 to 44.6 µM)	> 64	> 64
O=C(NCCCS(=O)(=O)N1CCN(C(=O)NC(C(=O)N[C@H]2Cc3ccc(F)c(C(=O)O)c3OB2O)c2cc(F)c(O)c(O)c2Cl)C1=O)Nc1ccc(O)cc1 (stereo partly drawn) [Example 276, (3R)-3-(2-(2-chloro-5-fluoro-3,4-dihydroxyphenyl)-2-(3-((3-(3-(4-hydroxyphenyl)ureido)propyl)sulfonyl)-2-oxoimidazolidine-1-carboxamido)acetamido)-7-fluoro-2-hydroxy-3,4-dihydro-2H-benzo[e][1,2]oxaborinine-8-carboxylic acid]	> 250	< 1	< 1	8 to 16 (≈ 9.87 to 19.7 µM)	< 1				4 to 8 (≈ 4.93 to 9.87 µM)	> 64	16 to 32 (≈ 19.7 to 39.5 µM)
O=C(O)c1c(F)ccc2c1OB(O)[C@@H](NC(=O)C(NC(=O)N1CCN(S(=O)(=O)CCNC(=O)[C@@H]3CCCN3)C1=O)c1cc(F)c(O)c(O)c1Cl)C2 (stereo partly drawn) [Example 265, (3R)-3-(2-(2-chloro-5-fluoro-3,4-dihydroxyphenyl)-2-(2-oxo-3-((2-((S)-pyrrolidine-2-carboxamido)ethyl)sulfonyl)imidazolidine-1-carboxamido)acetamido)-7-fluoro-2-hydroxy-3,4-dihydro-2H-benzo[e][1,2]oxaborinine-8-carboxylic acid]	> 250	< 1	2 to 4 (≈ 2.64 to 5.27 µM)	8 to 16 (≈ 10.5 to 21.1 µM)	< 1				4 to 8 (≈ 5.27 to 10.5 µM)	> 64	16 to 32 (≈ 21.1 to 42.2 µM)
